# Reference: US4499107A, “Method for treating infected renal calculosis” (Dr. L^o. Zambeletti, S.p.A., priority 1981, dated 1985)
# Where two headings read alike, the source gives them in different places.
# Legend:
# Acute toxicity = details: in vivo, mouse
# [1] = design: species or system "Wistar" rats; details: rat, in vivo, po, 200 mg/kg
# Procedure: Subacute toxicity. A test lasting 4 weeks has been carried out on the two compounds administered at the dose of 200 mg/kg by oral route to groups of "Wistar" rats, 8 males and 8 females, with daily observation of the behavior, of health status, of feed and water consumption and, twice a week, of the body weight of animals. At the end of 4 weeks the animals have been sacrificed and autopsy and haematological and haematochemical examinations have been performed on them. For all the duration of the test, no anomaly has been noticed in the behavior of both AHA-treated and PHA-treated animals.
# [2] = system: chinese hamster embryonal cell cultures; assay: Mutagenesis: morphological changes of the chromosomes in embryonal cell cultures; format: cell-based; details: 1.1 10^-4 M, 24-72 hours of incubation
# Text: (§1) Mutagenesis. As far as AHA is concerned, it has been previously reported. […] The propionhydroxamic acid is non mutagenic also in the Ames test.
# [3] = system: mouse embryonal cell cultures; assay: as above; format: cell-based; details: 1.1 10^-4 M, 24-72 hours of incubation
# Text: as §1
# [4] = system: Salmonella typhimurium (TA 100 and TA 98); assay: Ames test; format: cell-based
# Procedure: In the Belgian Pat. No. 878,836, Jan. 16, 1980, it is moreover reported that AHA is mutagenic according to the Ames test on two strains of Salmonella typhimurium (TA 100 and TA 98), at the dose of 40,000 μg/plate.
# as §1
# [5] = system: urinary infection caused by urease-producing bacteria; format: in vivo, patient
# Text: The results shown above, pointing out a globally superimposable behavior of AHA and PHA, with the exclusion of the fundamental aspects of the mutagenesis and of the theratogenesis, which are absent in propionhydroxamic acid, prompted to test this latter compound on some clinical cases, hereunder reported. (1) Urinary infection caused by urease-producing bacteria; (2) relapsing renal calculosis.
# [6] = rabbit, in vivo; for duration of the reduction of the arterial pressure: po, 100 mg/kg
# [7] = rat, in vivo, ip, 300 mg/kg
# [8] = Teratogenesis in pregnant female rats
# [9] = system: mouse embryonal cell cultures; details: 1,1.10^-4 M; cited from earlier work
# [10] = system: chinese hamster embryonal cell cultures; details: 1,1.10^-4 M; cited from earlier work
# [11] = pregnant female rats, 12th day of pregnancy, cited from earlier work
# [12] = system: urease-producing bacteria; details: renal lithiasis sustained by urease-producing bacteria; cited from earlier work
# [13] = system: Salmonella typhimurium (TA 100 and TA 98); details: strains TA 100 and TA 98, 40,000 μg/plate; cited from earlier work
# [14] = Case 1, 500 mg/die combined with antibiotic therapy
# [15] = Case 2, 375 mg/die combined with antibiotic therapy
# [16] = Case 4, 500 mg/die with antibiotic therapy, after 3 months
# [17] = Case 5, 500 mg/die with antibiotic therapy
compound,measurement,setting,value
"CCC(=O)NO [PHA, propionhydroxamic acid]",LD50,"Acute toxicity; oral route, confidence limits in brackets",2370 mg/kg
same,"autoptical examination of the main organs (thymus, testes, heart, liver)",[1],hypotrophy of the main organs
same,behavior of animals,[1],no anomaly
same,feed consumption,[1],decrease
same,"haematochemical parameters, AHA versus PHA",[1],No remarkable differences
same,macroscopic lesion of the main organs,[1],no macroscopic lesion
same,morphologic change of the chromosomes provoked by damages at DNA,[2],did not induce
same,morphologic change of the chromosomes provoked by damages at DNA,[3],did not induce
same,mutagenicity in the Ames test,[4],non mutagenic
same,urinary ammonium values,[5]; [14],normalization
same,urinary pH,[5]; [14],normalization
same,urinary cultures,"[5]; Case 1, 500 mg/die combined with antibiotic therapy, Proteus mirabilis",sterilization of urinary cultures
same,effect of temporary interruption of the drug,"[5]; Case 2, 375 mg/die",reapparence of urease producing bacteria (Klebsiella)
same,urinary ammonium values,[5]; [15],decrease of urinary ammonium values
same,urinary infection,[5]; [15],resolution of urinary infection
same,urinary acidification,"[5]; Case 2, 375 mg/die combined with antibiotic therapy, Proteus mirabilis and Klebsiella",sufficient urinary acidification
same,volumetric increase of the lithiasic relapse,"[5]; Case 2, 375 mg/die, during 5 months' therapy",not observed
same,lithiasic relapse at the left kidney,[5]; Case 3,Absence of lithiasic relapse
same,crystalluria,"[5]; Case 3, combination",non pathologic crystalluria
same,urinary ammonium,"[5]; Case 3, combination, Proteus mirabilis",normalization
same,lithiasic relapse at the left kidney,"[5]; Case 4, 500 mg/die",no lithiasic relapse
same,crystalluria,[5]; [16],normalization
same,urinary pH,[5]; [16],normalization
same,ammonium values,"[5]; Case 4, 500 mg/die with antibiotic therapy, after 3 months, Proteus mirabilis and Klebsiella",normalization
same,growth of the already present lithiasic formation,[5]; [17],stopping of the growth
same,onset of further relapses,[5]; [17],lacking onset of further relapses
same,urinary infection,[5]; [17],resolution of urinary infection
same,urinary pH,[5]; [17],normalization
same,urinary ammonium,"[5]; Case 5, 500 mg/die with antibiotic therapy, Proteus mirabilis",normalization
same,blood pressure,[6]; 50 mg/kg,does not change
same,heart rate,[6]; 50 mg/kg,does not change
same,duration of the reduction of the arterial pressure,[6],10 to 30 min
same,morphological development of the survived fetuses,[7],perfectly normal development
same,dead fetuses,"[8]; intraperitoneal, once on the 13th day of pregnancy, 300 mg/kg",55%
"CC(=O)NO [AHA, acetohydroxamic acid, reference compound]",LD50,Acute toxicity; po,2740 mg/kg
same,"autoptical examination of the main organs (thymus, testes, heart, liver)",[1],hypotrophy of the main organs
same,behavior of animals,[1],no anomaly
same,feed consumption,[1],decrease
same,"haematochemical parameters, AHA versus PHA",[1],No remarkable differences
same,macroscopic lesion of the main organs,[1],no macroscopic lesion
same,reduction of the mean arterial pressure,[6]; 50 mg/kg,15%
same,time after administration at which the reduction of mean arterial pressure is still present,[6]; 50 mg/kg,≥ 120 min
same,duration of the reduction of the arterial pressure,[6],> 120 min
same,morphological changes of the chromosomes provoked by damages at DNA,[9],causes morphological changes of the chromosomes
same,morphological changes of the chromosomes provoked by damages at DNA,[10],causes morphological changes of the chromosomes
same,fetuses with deformations,[11]; i.p. 750 mg/kg una tantum,50%
same,deaths of fetuses,[11]; i.p. 1000 mg/kg una tantum,55%
same,deformations in the survived fetuses,[11]; i.p. 1000 mg/kg una tantum,100%
same,reabsorption of fetuses,[11]; i.p. 1500 mg/kg una tantum,100%
same,drug's action on urinary ammonium and urinary pH,[12],decrease of urinary ammonium and urinary pH
same,mutagenicity in the Ames test,[13],mutagenic
same,dead fetuses (comparison value),[8]; dose for AHA not stated at this place,50%
